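Following 48 hours of exposure in 96-well plates, responses at five concentrations were used to interpolate endpoints linearly. GI50 is the concentration that inhibits growth by half.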 Calls of active or inactive are those of the source. Cut-off read from the data, not from the text of the source: active = GI50 up to about 1.1 µM and inactive = higher.

Among the test systems are A549; COLO 205; DLD-1; HL-60; KM12; LOX IMVI; LXFL 529; Malme-3M; NCI-H23; NCI-H460; NCI-H522; OVCAR-3; RPMI-8226; SK-MEL-28; U-251; RXF 393; BT-549; NCI/ADR-RES; T47D.
Common to all, as to experiment: NCI-60 cell line screen, 48 h

`Cc1cc(-c2ccccc2)nc(Nc2nc3ccccc3o2)n1`: the GI50 in the test with A549, in the test with COLO 205, in the test on DLD-1, with HL-60, with KM12 and with LOX IMVI was > 100 µM (inactive) each time. The GI50 in the test with LXFL 529, in the test on Malme-3M, in the test on NCI-H23, in the test on NCI-H460, in the test with NCI-H522 and in the test with OVCAR-3 was > 100 µM (inactive) throughout. For the same compound, the GI50 with RPMI-8226, in the test with SK-MEL-28 and in the test with U-251 was > 100 µM (inactive) in each case.
In the case of `O=c1c2cc(Br)cc(Br)c2nc(CCCl)n1CCO`, the GI50 with A549 was > 100 µM (inactive); in the test with COLO 205 it was > 100 µM (inactive); in the test on DLD-1 it was > 100 µM (inactive); with HL-60 it was 37.8 µM (inactive); in the test on KM12, > 100 µM (inactive); in the test on LOX IMVI, > 100 µM (inactive). For the same compound, the GI50 with LXFL 529 was 77.6 µM (inactive); with Malme-3M it was 52.1 µM (inactive); in the test with NCI-H23 it was 49.9 µM (inactive); with NCI-H460, > 100 µM (inactive); in the test with NCI-H522, 62.4 µM (inactive); in the test with OVCAR-3 it was 52.2 µM (inactive). The GI50 in the test with RPMI-8226 is 34.8 µM (inactive); in the test on RXF 393 it was 47.4 µM (inactive); in the test with SK-MEL-28, 52 µM (inactive); in the test with U-251, 67.1 µM (inactive).
`COc1ccc(-c2cc(O)c3cc(OC)ccc3n2)cc1`: the GI50 in the test with A549, with COLO 205, with DLD-1, in the test on HL-60, in the test with KM12 and in the test with LOX IMVI was > 100 µM (inactive) each time. Also, the GI50 with LXFL 529, with Malme-3M, with NCI-H23, with NCI-H522, with OVCAR-3 and in the test on RPMI-8226 was > 100 µM (inactive) each time. For the same compound, the GI50 in the test with RXF 393 and in the test with SK-MEL-28 was > 100 µM (inactive) each time.
Take `CCCCCCCCCCCC/C=C\CC[C@@H](O)[C@H](O)CC[C@H](O)[C@@H]1CC[C@@H](CCCCCCCC2=C[C@H](C)OC2=O)O1` [GIGANTRIONENIN]: the GI50 in the test with A549 is 1.73 µM (inactive); in the test with BT-549 it was 0.00819 µM (active); in the test on COLO 205, 2.98 µM (inactive); in the test on HL-60, 2.17 µM (inactive); in the test with KM12, 3.92 µM (inactive); in the test with LOX IMVI, 1.31 µM (inactive). In addition, the GI50 is 13.7 µM (inactive) in the test with Malme-3M; 0.11 µM (active) in the test with NCI-H23; 2.91 µM (inactive) with NCI-H460; 7.45 µM (inactive) with NCI-H522; 1.24 µM (inactive) in the test with NCI/ADR-RES; 1.99 µM (inactive) with OVCAR-3. Also, the GI50 in the test on RPMI-8226 was 2.65 µM (inactive); in the test with RXF 393 it was 19.4 µM (inactive); with SK-MEL-28, 2.94 µM (inactive); in the test on T47D, 3.43 µM (inactive); with U-251 it was 3.08 µM (inactive).
Take `CC(=O)OC1c2ccccc2CCCCCCC12OCCO2` (configuration not stated): the GI50 with A549 is > 100 µM (inactive); in the test with COLO 205, > 100 µM (inactive); in the test on DLD-1, > 100 µM (inactive); with HL-60 it was 44.3 µM (inactive); in the test on KM12 it was > 100 µM (inactive); in the test with LOX IMVI, > 100 µM (inactive). The GI50 is 92.5 µM (inactive) in the test on Malme-3M; > 100 µM (inactive) in the test on NCI-H23; > 100 µM (inactive) in the test with NCI-H460; 50.9 µM (inactive) in the test on NCI-H522; 33 µM (inactive) with OVCAR-3; 48.3 µM (inactive) with RPMI-8226. For the same compound, the GI50 with RXF 393, in the test on SK-MEL-28 and in the test on U-251 was > 100 µM (inactive) each time.
Consider `C/C(Cl)=N/OC(=O)Nc1ccc(S(N)(=O)=O)c(C)c1`, for which the GI50 with A549 is 17.5 µM (inactive); with BT-549, 12.3 µM (inactive); in the test with COLO 205 it was 2.17 µM (inactive); with HL-60, 1.42 µM (inactive); with KM12 it was 18.6 µM (inactive); in the test with LOX IMVI, 2.27 µM (inactive). For the same compound, the GI50 in the test on Malme-3M was 2.08 µM (inactive); in the test with NCI-H23, 18.1 µM (inactive); in the test with NCI-H460, 39.9 µM (inactive); in the test on NCI-H522, 1.45 µM (inactive); in the test with NCI/ADR-RES, 14.1 µM (inactive); in the test with OVCAR-3 it was 4.46 µM (inactive). The GI50 in the test with RPMI-8226 is 1.95 µM (inactive); in the test on RXF 393, 16.9 µM (inactive); in the test on SK-MEL-28, 13.6 µM (inactive); with T47D it was 2.92 µM (inactive); with U-251 it was 18.5 µM (inactive).
On to `CN1CCCN2CCN(C)CCN(CC1)CC2`, for which the GI50 in the test with A549, with BT-549, with COLO 205, with HL-60, with KM12 and in the test on LOX IMVI was > 100 µM (inactive) throughout. Besides, the GI50 in the test on Malme-3M, in the test on NCI-H23, with NCI-H460, with NCI-H522, in the test with NCI/ADR-RES and with OVCAR-3 was > 100 µM (inactive) in each case. Moreover, the GI50 with RPMI-8226, in the test with RXF 393, with SK-MEL-28, in the test on T47D and in the test with U-251 was > 100 µM (inactive) each time.
As to `CO[C@]12CCC(=O)N1C=Cc1c2[nH]c2ccccc12`, the GI50 in the test on A549, with COLO 205, in the test on DLD-1, with HL-60, with LOX IMVI and in the test with LXFL 529 was > 100 µM (inactive) throughout. The GI50 in the test with Malme-3M, in the test on NCI-H23, in the test on NCI-H460, with OVCAR-3, in the test on RPMI-8226 and with RXF 393 was > 100 µM (inactive) throughout. Moreover, the GI50 in the test on SK-MEL-28 was > 100 µM (inactive).
For the compound `CCOC(=O)C(C(N)=O)C1=Nc2cc([N+](=O)[O-])ccc2N/C1=C\C(=O)c1ccccc1` (configuration not stated), the GI50 is 17.3 µM (inactive) in the test with A549; 21.7 µM (inactive) in the test with BT-549; 17.9 µM (inactive) in the test with COLO 205; 8.93 µM (inactive) in the test on HL-60; 12.1 µM (inactive) in the test on KM12; 14.1 µM (inactive) with LOX IMVI. Moreover, the GI50 in the test with Malme-3M is 19.9 µM (inactive); with NCI-H23, 11.5 µM (inactive); with NCI-H460, 13.4 µM (inactive); in the test with NCI-H522 it was 14.9 µM (inactive); in the test on NCI/ADR-RES it was 16.8 µM (inactive); with OVCAR-3, 10.3 µM (inactive). The GI50 is 11.1 µM (inactive) in the test with RPMI-8226; 17.7 µM (inactive) in the test on RXF 393; 25.6 µM (inactive) in the test on SK-MEL-28; 26 µM (inactive) with T47D; 11.3 µM (inactive) in the test with U-251.
In the case of `CC(C)(C)c1ccc2c(c1)CNCCNCc1cc(C(C)(C)C)ccc1OCC1(CO2)COc2ccc(C(C)(C)C)cc2CNCCNCc2cc(C(C)(C)C)ccc2OC1`, the GI50 in the test on A549 is 0.433 µM (active); in the test with BT-549, 1.71 µM (inactive); with COLO 205, 0.649 µM (active); with HL-60 it was 0.179 µM (active); with KM12, 0.388 µM (active); in the test on LOX IMVI, 0.243 µM (active). Further, the GI50 with Malme-3M was 1.41 µM (inactive); in the test with NCI-H23, 0.948 µM (active); in the test on NCI-H460, 0.276 µM (active); with NCI-H522, 0.284 µM (active); with NCI/ADR-RES, 1.63 µM (inactive); in the test on OVCAR-3 it was 1.61 µM (inactive). Moreover, the GI50 in the test on RPMI-8226 is 0.372 µM (active); with RXF 393, 1.42 µM (inactive); in the test with SK-MEL-28, 1.71 µM (inactive); with T47D it was 1.91 µM (inactive); in the test with U-251, 0.242 µM (active).
On to `O=C(O)c1cccc(/N=N/c2c(S(=O)(=O)O)ccc3c2C(=O)c2ccccc2C3=O)c1O`, for which the GI50 in the test on A549, in the test on BT-549, in the test on COLO 205, in the test on HL-60, with KM12 and in the test with LOX IMVI was > 100 µM (inactive) each time. For the same compound, the GI50 with Malme-3M was 54.6 µM (inactive); in the test on NCI-H23, > 100 µM (inactive); with NCI-H460 it was > 100 µM (inactive); in the test with NCI-H522, > 100 µM (inactive); in the test on NCI/ADR-RES, > 100 µM (inactive); with OVCAR-3, > 100 µM (inactive). For the same compound, the GI50 in the test on RPMI-8226, with RXF 393, with SK-MEL-28, in the test on T47D and in the test with U-251 was > 100 µM (inactive) in each case.
`Cc1nn(C(=O)c2ccc(Cl)cc2)c2c1C(c1cccc([N+](=O)[O-])c1)SC(=N)N2` (configuration not stated): the GI50 with A549, in the test on BT-549, in the test on COLO 205, in the test with HL-60, in the test with KM12 and in the test with LOX IMVI was > 10 µM (inactive) each time. Besides, the GI50 in the test with Malme-3M, in the test on NCI-H23, in the test on NCI-H460, with NCI-H522, in the test on NCI/ADR-RES and in the test with OVCAR-3 was > 10 µM (inactive) each time. Moreover, the GI50 with RPMI-8226, in the test with RXF 393, in the test with SK-MEL-28, in the test on T47D and in the test on U-251 was > 10 µM (inactive) each time.
